Consider 3 compounds from patent US20170000775A1, “PHARMACEUTICAL COMPOSITIONS COMPRISING ANTIBACTERIAL AGENTS” (priority 2014, published 2017).

Where a name gives a salt, the structure may show the parent alone.

Test [1] deals with A. baumannii NCTC 13303 producing CHDL oxacillinase [OXA-26] beta-lactamase enzymes. In words: Time kill study against A. baumannii NCTC 13303. The format is cell-based, Acinetobacter baumannii. To be noted: sulbactam 8 mcg/ml, sodium salt of Formula (I) 4 mcg/ml, imipenem 8 mcg/ml; for Bacterial count, 0 hour: 0 hour (initial inoculum); for Bacterial count, 0 hour / Bacterial count, 2 hour / Bacterial count, 4 hour / Bacterial count, 6 hour / Bacterial count, 8 hour: alone or combined as labelled; for Effect on bacterial count (in words): throughout the duration of the study. On the procedure:
(§1) In a typical time kill study, the freshly grown cultures were diluted to the required cell density (initial starting inoculum) in Cation adjusted Muller Hinton broth medium (BD, USA). The antibacterial agents (either alone or in combination) at the required concentrations were added into the culture-containing medium. The samples were incubated under shaking condition (120 rpm) at 37° C. Enumeration of viable bacterial count was done every 2 hour by diluting in normal saline and plating on to the Tryptic Soya Agar plates (BD, USA). The plates were incubated for 24 hours to arrive at the viable bacterial count. […] In general, the decrease of 1 Log CFU/ml, corresponds to 90% killing of bacteria. Similarly, 2 Log CFU/ml reductions indicates to 99% killing of bacteria and 3 Log CFU/ml reductions is equal to 99.9% killing of bacteria.
(§2) The assay without any antibacterial agent was taken as control. The sodium salt of a compound of Formula (I), was used for antibacterial testing.

In test [2] the test system is A. baumannii NCTC 13302 producing CHDL oxacillinase [OXA-25] beta-lactamase enzymes. In words: Time kill study against A. baumannii NCTC 13302. The format is cell-based, Acinetobacter baumannii. To be noted: sulbactam 8 mcg/ml, sodium salt of Formula (I) 4 mcg/ml, imipenem 16 mcg/ml; for Bacterial count, 0 hour: 0 hour (initial inoculum); for Bacterial count, 0 hour / Bacterial count, 2 hour / Bacterial count, 4 hour / Bacterial count, 6 hour / Bacterial count, 8 hour: alone or combined as labelled; for Effect on bacterial count (in words): throughout the duration of the study. The procedure:
as §1, §2

For `C[C@@H](O)[C@H]1C(=O)N2C(C(=O)O)=C(SCCN=CN)C[C@H]12` [Imipenem, imipenem], in test [1], the “Bacterial count, 0 hour” value is given as 6.17 Log10CFU/ml; the “Bacterial count, 2 hour” value is 7.84 Log10CFU/ml; the “Bacterial count, 4 hour” value is given as 8.13 Log10CFU/ml; the “Bacterial count, 6 hour” value is 8.26 Log10CFU/ml. The “Bacterial count, 8 hour” value in test [1] amounted to 8.23 Log10CFU/ml. For the same compound, in test [2], the “Bacterial count, 0 hour” value is reported as 6.36 Log CFU/ml; the “Bacterial count, 2 hour” value stood at 7.74 Log CFU/ml; the “Bacterial count, 4 hour” value was 8 Log CFU/ml; the “Bacterial count, 6 hour” value is reported as 8.32 Log CFU/ml. Moreover, the “Bacterial count, 8 hour” value in test [2] was determined as 8.74 Log CFU/ml.

Take `N#C[C@@H]1CC[C@@H]2CN1C(=O)N2OS(=O)(=O)O` [Sodium salt of a compound of Formula (I), sulphuric acid, mono[(1R,2S,5R)-2-cyano-7-oxo-1,6-diazabicyclo[3.2.1]oct-6-yl] ester, sodium salt (1:1)]: in test [1], the “Bacterial count, 0 hour” value was 6.17 Log10CFU/ml; the “Bacterial count, 2 hour” value was 7.6 Log10CFU/ml; the “Bacterial count, 4 hour” value is on record as 7.9 Log10CFU/ml; the “Bacterial count, 6 hour” value came out at 7.95 Log10CFU/ml. Further, in test [1], the “Bacterial count, 8 hour” value is recorded as 8.1 Log10CFU/ml and the “Effect on bacterial count (in words)” value is “not effective to decrease the bacterial count”. For the same compound, in test [2], the “Bacterial count, 0 hour” value is 6.36 Log CFU/ml; the “Bacterial count, 2 hour” value was determined as 7.8 Log CFU/ml; the “Bacterial count, 4 hour” value was found to be 8.0 Log CFU/ml; the “Bacterial count, 6 hour” value is listed as 8.1 Log CFU/ml. In test [2], the “Bacterial count, 8 hour” value came to 8.15 Log CFU/ml and the “Effect on bacterial count (in words)” value was “not effective to decrease the bacterial count”.

For the compound `CC1(C)[C@H](C(=O)O)N2C(=O)C[C@H]2S1(=O)=O` [Sulbactam, sulbactam], in test [1], the “Bacterial count, 0 hour” value was 6.17 Log10CFU/ml; the “Bacterial count, 2 hour” value turned out to be 7.32 Log10CFU/ml; the “Bacterial count, 4 hour” value is 7.56 Log10CFU/ml; the “Bacterial count, 6 hour” value stood at 7.81 Log10CFU/ml. For the same compound, in test [1], the “Bacterial count, 8 hour” value is recorded as 7.81 Log10CFU/ml and the “Effect on bacterial count (in words)” value was “not effective to decrease the bacterial count”. In addition, in test [2], the “Bacterial count, 0 hour” value is reported as 6.36 Log CFU/ml; the “Bacterial count, 2 hour” value amounted to 6.81 Log CFU/ml; the “Bacterial count, 4 hour” value is 7.4 Log CFU/ml; the “Bacterial count, 6 hour” value amounted to 7.65 Log CFU/ml. In test [2], the “Bacterial count, 8 hour” value is on record as 7.31 Log CFU/ml and the “Effect on bacterial count (in words)” value was “not effective to decrease the bacterial count”.
